Measurements: publication PMC11489226 (Archives of Toxicology, 2024)
“And” between values parts separate entries of the source, which are not always exact repeats. Equal values may be shown once.

How the values were obtained:
CYP2E1 = CYP2E1 (Homo sapiens, UniProt P05181); test: Metabolism in transgenic HEK293 cells expressing CYP2E1; details: 20 µM parent PCB, 24 h, supernatant
Procedure: (§1) For the generation of transgenic cell lines, we used semi-adherent HEK293 cells (DSMZ, ACC305, human embryonic kidney cells) which were cultured on a daily basis in DMEM medium supplemented with 10% (FCS) and 1% penicillin/streptomycin. In a first step CYP1A2, CYP2C8, CYP2C9, CYP3A4, CYP2A6, and CYP2E1 cDNA were cloned into the plasmid pcDNATM3.1/V5-His TOPO® using human liver RNA as a template and using the following primers: CYP1A2 for5′-[…]-3′, CYP1A2 rev 5′-[…]-3′; CYP2C8 for 5′-[…]-3′, CYP2C8 rev 5′-[…]-3′; CYP2C9 for 5′-[…]-3′, CYP2C9 rev 5′-[…]-3′; CYP3A4 for 5′-[…]-3′, CYP3A4 rev 5′-[…]-3′, CYP2A6 for 5′-[…]-3′, CYP2A6 rev 5′-[…]-3′; CYP2E1 for 5′-[…]-3′, CYP2E1 rev 5′-[…]-3′. Final constructs were verified with Sanger DNA sequencing and restriction digestion. For transfection, 3 × 10^6 HEK293 cells were pre-incubated in a 10 cm dish in DMEM medium with 10% FCS, but without antibiotics, for 18 to 24 h. When the cells reached approximately 70% confluency, they were transfected using TransIT-LT1 transfection reagent (Biozol, Eiching, Germany). The TransIT-LT1 reagent was warmed to room temperature and vortexed. 1.63 mL Opti-MEM, 16.25 µL plasmid DNA (1 µg/µL), and 48.75 µL TransIT-LT1 reagent were mixed and incubated for 15 to 30 min. The mixture was then added dropwise to the medium of the cells, and the cells were incubated again at 37 °C and 5% CO2. After 24 h, the medium was replaced with standard medium and geneticin was added for selection (1 mg/mL). Cells were selected for 6–8 weeks in bulk culture, and single cell clones were obtained subsequently by limiting dilution. Each clone was checked for insertion by PCR using genomic DNA as a template.
(§2) Parallel samples were run without the addition of PCBs. At a confluence of 80%, PCBs (20 μM each, dissolved in ethanol) were added and cells were incubated for 24 h before harvest of supernatants. Supernatants were diluted 1:2 with 80 μL acetate buffer 0.1 M (pH = 5.3). 100 μL of this dilution were further incubated with 100 μL of ammonium acetate buffer 0.1 M (pH = 5.3) and 5 μL of β-Glucuronidase/Arylsulfatase enzyme overnight in a drying oven at 37 °C for enzymatic hydrolysis to release conjugated compounds. 50 μL of a mix of internal standards (10 ng/mL) and 600 μL of methanol were added to the samples, then mixed by vortexing for 1 min and centrifuged for 10 min at 3400g. The individual supernatants were transferred to glass LC vials and evaporated to approximately 50 μL at 45 °C under a gentle stream of nitrogen. Finally, 0.1 mol/ L ammonium acetate buffer was added to a final volume of 100 μL and then transferred to an insert for analysis.
(§3) HEK293 cells overexpressing the respective CYP enzymes were seeded onto 6-well plates and were treated with or without 10 µM of the respective probe drug in DMEM medium for 24 hours at 37 °C and 5 % CO2. After incubation 200 µL DMEM were collected, cells were washed with PBS and adherent cells were lysed in 500 µL methanol for 20 minutes. Analytes were measured by LC-MS/MS either in methanol cell lysates or in DMEM supernatant.
(§4) 50 µL of DMEM samples were protein precipitated by adding 200 µL of methanol and were centrifuged for 20 min, 17,000 g and 4°C. Supernatants were diluted in water or 40 % methanol according to dilution factor. Methanol cell lysates were diluted ½ with water and centrifuged for 20 min, 17,000 g and 4°C. 5 µL of the processed samples were injected for LC-MS analysis.

CYP3A4 = CYP3A4 (Homo sapiens, UniProt P08684); test: Metabolism in transgenic HEK293 cells expressing CYP3A4; details: 24 h; for Quantification of metabolites generated from PCB28, 52, and 101: 20 µM parent PCB, supernatant
Procedure: as §1, §2, §3, §4

CYP2A6 = target: T1, CYP2A6 (Homo sapiens, UniProt P11509); test: Metabolism in transgenic HEK293 cells expressing CYP2A6; assay type: in vitro ADME; parameters: V5-His (vector-encoded) (C); expressed in transfected cells; details: 24 h; for Quantification of metabolites generated from PCB28, 52, and 101 / Metabolite concentration formed, range across cell clones: 20 µM parent PCB; for Quantification of metabolites generated from PCB28, 52, and 101: supernatant; for Metabolite concentration formed, range across cell clones: HEK293CYP2A6 cell lines
T1 sequence (P11509 1-494): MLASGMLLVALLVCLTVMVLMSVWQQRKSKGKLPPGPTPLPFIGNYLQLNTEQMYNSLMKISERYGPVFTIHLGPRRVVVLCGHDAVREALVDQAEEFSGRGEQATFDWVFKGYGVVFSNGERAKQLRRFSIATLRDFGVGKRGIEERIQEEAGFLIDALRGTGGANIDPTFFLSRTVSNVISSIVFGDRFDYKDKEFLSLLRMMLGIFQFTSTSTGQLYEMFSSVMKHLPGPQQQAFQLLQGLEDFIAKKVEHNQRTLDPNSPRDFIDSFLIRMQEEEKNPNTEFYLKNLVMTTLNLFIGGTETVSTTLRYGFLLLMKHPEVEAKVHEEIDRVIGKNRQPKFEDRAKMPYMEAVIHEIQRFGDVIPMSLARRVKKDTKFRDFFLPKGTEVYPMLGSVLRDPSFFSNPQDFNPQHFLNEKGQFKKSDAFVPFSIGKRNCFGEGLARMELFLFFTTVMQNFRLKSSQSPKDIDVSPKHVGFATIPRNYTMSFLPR
Procedure: as §1, §2, §3, §4

CYP2C8 = target: T2, CYP2C8 (Homo sapiens, UniProt P10632); test: Metabolism in transgenic HEK293 cells expressing CYP2C8; assay type: in vitro ADME; details: 20 µM parent PCB, 24 h, supernatant
T2 construct: V5-His (vector-encoded) (C); expressed in transfected cells
T2 sequence (P10632 1-490): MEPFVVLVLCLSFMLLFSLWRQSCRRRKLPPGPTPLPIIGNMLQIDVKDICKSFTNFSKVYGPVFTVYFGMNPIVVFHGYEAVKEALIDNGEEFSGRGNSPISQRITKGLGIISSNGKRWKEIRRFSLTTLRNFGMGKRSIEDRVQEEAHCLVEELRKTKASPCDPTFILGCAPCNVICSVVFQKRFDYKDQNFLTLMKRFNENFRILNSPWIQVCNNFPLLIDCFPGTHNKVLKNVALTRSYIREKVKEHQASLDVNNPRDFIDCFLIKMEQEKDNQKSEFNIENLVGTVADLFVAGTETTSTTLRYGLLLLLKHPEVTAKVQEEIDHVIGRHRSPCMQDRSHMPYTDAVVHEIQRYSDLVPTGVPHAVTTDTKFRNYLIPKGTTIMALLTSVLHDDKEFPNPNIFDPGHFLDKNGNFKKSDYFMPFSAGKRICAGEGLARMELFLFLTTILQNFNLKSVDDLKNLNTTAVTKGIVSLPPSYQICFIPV
Procedure: as §1
as §2, with “analysis. […]” for “analysis.”

Sequence of CYP2E1 (P05181 whole entry): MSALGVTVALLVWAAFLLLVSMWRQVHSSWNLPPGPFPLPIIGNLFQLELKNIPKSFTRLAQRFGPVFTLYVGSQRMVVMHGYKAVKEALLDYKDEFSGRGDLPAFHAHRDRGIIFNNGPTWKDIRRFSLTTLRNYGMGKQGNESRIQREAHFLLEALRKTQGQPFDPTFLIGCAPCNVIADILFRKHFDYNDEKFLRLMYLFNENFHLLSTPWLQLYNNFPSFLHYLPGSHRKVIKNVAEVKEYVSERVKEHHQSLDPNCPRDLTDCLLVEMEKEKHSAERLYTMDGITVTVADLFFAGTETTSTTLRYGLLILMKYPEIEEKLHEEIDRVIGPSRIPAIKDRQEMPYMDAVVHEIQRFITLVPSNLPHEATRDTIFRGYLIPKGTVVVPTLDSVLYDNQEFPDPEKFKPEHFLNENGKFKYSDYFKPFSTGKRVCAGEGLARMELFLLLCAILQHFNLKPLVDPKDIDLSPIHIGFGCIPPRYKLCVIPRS
Sequence of CYP3A4 (P08684 whole entry): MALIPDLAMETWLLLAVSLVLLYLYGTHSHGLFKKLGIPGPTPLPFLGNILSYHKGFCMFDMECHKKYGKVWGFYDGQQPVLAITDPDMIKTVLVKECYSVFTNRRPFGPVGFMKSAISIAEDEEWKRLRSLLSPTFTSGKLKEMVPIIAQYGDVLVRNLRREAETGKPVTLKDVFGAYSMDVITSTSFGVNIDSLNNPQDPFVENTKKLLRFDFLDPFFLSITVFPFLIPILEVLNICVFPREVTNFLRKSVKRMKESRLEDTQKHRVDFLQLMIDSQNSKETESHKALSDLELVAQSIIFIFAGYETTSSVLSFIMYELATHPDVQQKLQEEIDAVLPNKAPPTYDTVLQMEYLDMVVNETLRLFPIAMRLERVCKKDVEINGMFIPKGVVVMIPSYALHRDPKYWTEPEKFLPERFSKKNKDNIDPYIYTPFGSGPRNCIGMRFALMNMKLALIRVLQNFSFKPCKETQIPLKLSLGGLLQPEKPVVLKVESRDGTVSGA

SMILES	Quantification of metabolites generated from PCB28, 52, and 101 (CYP2E1; CYP2E1 Clone B4)	Quantification of metabolites generated from PCB28, 52, and 101 (CYP2E1; CYP2E1 Clone B5)	Quantification of metabolites generated from PCB28, 52, and 101 (CYP2E1; CYP2E1 Clone E6)	Quantification of metabolites generated from PCB28, 52, and 101 (CYP3A4; CYP3A4 Clone D10)	Quantification of metabolites generated from PCB28, 52, and 101 (CYP3A4; CYP3A4 Clone E6)	Quantification of metabolites generated from PCB28, 52, and 101 (CYP2A6; CYP2A6 Clone B7)	Quantification of metabolites generated from PCB28, 52, and 101 (CYP2A6; CYP2A6 Clone C4)	Quantification of metabolites generated from PCB28, 52, and 101 (CYP2A6; CYP2A6 Clone C5)	Metabolite concentration formed, range across cell clones (CYP2A6)	Conversion product (CYP3A4; HEK293CYP3A4, 10 µM substrate)	Quantification of metabolites generated from PCB28, 52, and 101 (CYP2C8; CYP2C8 Clone A3)	Quantification of metabolites generated from PCB28, 52, and 101 (CYP2C8; CYP2C8 Clone D8)	Quantification of metabolites generated from PCB28, 52, and 101 (CYP2C8; CYP2C8 Clone D9)	Quantification of metabolites generated from PCB28, 52, and 101 (CYP3A4; CYP3A4 Clone B4)	Conversion product (CYP2A6; HEK293CYP2A6, 10 µM substrate)
Oc1cc(Cl)cc(-c2cc(Cl)c(Cl)cc2Cl)c1Cl [3´-OHCB101, 2,2′,4,5,5′-pentachloro-3′-biphenylol]	<LOQ	<LOQ	<LOQ	<LOQ	<LOQ	39,4 nM	24,09 nM	4,2 nM	1.44–13.5 µg/L and 4.2–39.4 nM	–	–	–	–	–	–
Cc1ncc2n1-c1ccc(Cl)cc1C(c1ccccc1F)=NC2 [Midazolam, reference compound]	–	–	–	–	–	–	–	–	–	1-hydroxy-midazolam	–	–	–	–	–
Oc1cc(Cl)c(-c2cc(Cl)ccc2Cl)cc1Cl [4-OHCB52, 2,2′,5,5′-tetrachloro-4-biphenylol]	5,55 nM	8,9 nM	10,23 nM	0,72 nM	0,54 nM	319,55 nM	1029,16 nM	30,78 nM	9.48 to 316.89 µg/L	–	<LOQ	0,1 nM	<LOQ	0,23 nM	–
Oc1cc(Cl)cc(-c2cc(Cl)ccc2Cl)c1Cl [3-OHCB52, 2,2′,5,5′-tetrachloro-3-biphenylol]	0,38 nM	0,59 nM	0,74 nM	0,66 nM	0,45 nM	0,87 nM	0,75 nM	–	0.23–0.27 µg/L and 0.74–0.87 nM	–	<LOQ	0,09 nM	<LOQ	0,21 nM	–
O=c1ccc2ccccc2o1 [Coumarin, reference compound]	–	–	–	–	–	–	–	–	–	–	–	–	–	–	7-hydroxycoumarin
Oc1cc(Cl)c(-c2cc(Cl)c(Cl)cc2Cl)cc1Cl [4´-OHCB101, 2,2′,4,5,5′-Pentachloro-4′-biphenylol]	3,84 nM	4,02 nM	5,08 nM	<LOQ	<LOQ	441,30 nM	272,55 nM	55,93 nM	19.15- 151.1 µg/L and 55.93–441.3 nM	–	–	–	–	–	–
